Data on 3 molecules can be found in patent US20070054325A1, “Materials and methods for screening modulators of neural regeneration” (REGLIA, priority 2005, published 2007).

One assay deals with ETBR. Conditions: Rogers et al., Glia 2003, cited from earlier work.
A further assay deals with T1, C3aR (Mus musculus, UniProt O09047).
T1 construct: wild-type C57BL/6 mice (8 week old male; n=12) were injected with a nonpeptide antagonist of the C3aR; from tissue; host or cells: living wild-type C57BL/6 mice; read-out in brain (SVZ, dentate gyrus, olfactory bulb)
T1 sequence (O09047 1-477): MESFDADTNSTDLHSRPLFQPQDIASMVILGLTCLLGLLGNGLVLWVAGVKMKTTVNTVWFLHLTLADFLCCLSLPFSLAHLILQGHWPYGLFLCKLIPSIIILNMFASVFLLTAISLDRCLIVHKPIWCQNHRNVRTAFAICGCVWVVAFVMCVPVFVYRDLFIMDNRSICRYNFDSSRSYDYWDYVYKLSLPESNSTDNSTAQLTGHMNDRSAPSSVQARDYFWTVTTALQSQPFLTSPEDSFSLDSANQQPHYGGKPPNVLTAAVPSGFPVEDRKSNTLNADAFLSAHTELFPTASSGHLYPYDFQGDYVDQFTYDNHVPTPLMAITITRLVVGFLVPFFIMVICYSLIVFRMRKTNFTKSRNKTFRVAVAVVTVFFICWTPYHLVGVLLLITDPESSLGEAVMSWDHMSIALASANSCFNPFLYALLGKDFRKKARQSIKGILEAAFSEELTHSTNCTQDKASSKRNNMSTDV
Briefly: Basal neurogenesis in mice treated with a C3aR antagonist (BrdU/Dcx/NeuN immunostaining). Format: in vivo, wild-type C57BL/6 mice. Conditions: for number of Dcx^posBrdU^pos cells, lower compared to control mice: 500 μg/mouse twice daily for 10 days. As to the method:
To assess whether signaling through the C3aR plays a role in basal neurogenesis, wild-type C57BL/6 mice (8 week old male; n=12) were injected with a nonpeptide antagonist of the C3aR, SB290157 (Calbiochem, San Diego, Calif., USA; 500 μg/mouse; Ames et al., J. Immunol. 166:6341-6348, 2001) diluted in PBS and DMSO (1.16% v/v) twice daily or vehicle for 10 days. Control mice (n=10) were given PBS and DMSO (1.16% v/v). During the first 7 days, all the mice also received bromodeoxyuridine (BrdU) (Sigma-Aldrich; 200 mg/kg). On day 10 after the first injection, the mice were deeply anesthetized and perfused.
Mouse brains were embedded in paraffin, cut into 8-μm sections, and stained with hematoxylin and erytrosin. For immunohistochemical evaluation, the sections were deparaffinized, permeabilized in 0.01 M citric acid (pH 6.0), heated twice for 5 min each in a microwave oven for antigen retrieval, and blocked with 0.1% BSA and 0.05% Triton-X-100 in PBS. Negative control was performed by omitting the primary antibody, unless stated otherwise.
Newly formed neurons were visualized by staining with biotinylated mouse anti-NeuN monoclonal antibody (Chemicon, Temecula, Calif., USA; 1:100) followed by Cy3-conjugated streptavidin (Sigma-Aldrich; 1:100) or Alexa633-conjugated streptavidin (Molecular Probes; 1:500) in combination with FITC-conjugated rat anti-BrdU antibody (Accurate Chemical, Westbury, N.Y., USA; 1:75). NeuN^pos BrdU^pos cells were counted in the penumbra on 2-3 sections per mouse. BrdU^pos cells were also counted in the SVZ. The sections were further stained with mouse anti-BrdU antibody (DAKO; 1:100) and Alexa 568 conjugated goat anti-mouse Ig (Molecular Probes; 1:500). BrdU^pos and NeuN^posBrdU^pos cells were counted in one hemisphere on 4-12 sections 160 μm apart/region in the granular layer of the olfactory bulb (bregma 3.2 mm to 4.28 mm) and dentate gyrus subgranular zone (bregma −1.34 mm to −3.64 mm).
Migrating neural progenitor cells were detected with goat anti-doublecortin (Dcx) antibody (Santa Cruz Biotechnology, Santa Cruz, Calif., USA; 1:50) followed by Alexa488-conjugated donkey anti-goat Ig (Molecular Probes; 1:100). Sections were further stained with mouse anti-BrdU antibody. BrdU^pos and Dcx^posBrdU^pos cells were counted in one hemisphere on 4-12 sections 160 μm apart/region in the SVZ (bregma 0.14 mm to 1.1 mm), the granular layer of the olfactory bulb (bregma 3.2 mm to 4.28 mm), and dentate gyrus subgranular zone (bregma −1.34 mm to −3.64 mm).
Proliferating migrating neuroblasts (Dcx^posBrdU^pos), newly formed neurons (NeuN^posBrdU^pos) and BrdU^pos cells were counted in the two principal sites of adult neurogenesis, SVZ and the dentate gyrus subgranular zone of the hippocampus, as well as in the olfactory bulb, the final destination for the neuroblasts originating in SVZ under basal conditions. In all three regions, the number of Dcx^posBrdU^pos cells was reduced in mice that received the C3aR antagonist. […] Also, the fraction of these cells among the BrdU^pos cells was reduced in the C3aR antagonist-treated mice: 19.0±1.1 vs. 26.7±1.7%, P<0.005 in the olfactory bulb; 13.1±0.6 vs. 17.3±0.8%, P<0.0005 in the dentate gyrus subgranular zone; and 26.4±0.8 vs. 31.4±1.2%, P<0.005 in the SVZ. […] The fraction of these cells among the BrdU^pos cells was reduced in the C3aR antagonist treated mice: 1.2±0.1 vs. 1.7±0.1%, P<0.005 in the olfactory bulb; 1.7±0.1 vs. 2.3±0.2%, P<0.05 in the dentate gyrus subgranular zone. The number of BrdU^pos cells in any of the regions was not affected by the C3aR antagonist treatment.

For assay [1], the system named is Neural stem cells, e.g., HCNA 94/GFPH. Nature of the assay: Neural stem cell differentiation assay (MAP2 immunostaining, DAPI). The class given is cell-based. As to the method:
It was previously known that it was possible to modulate cells, other than neurons, via C3aR. Accordingly, C3aR antagonists blocked modulation via the receptor and C3aR agonists stimulated the receptor. To evaluate the effect of C3aR agonists on neural stem cell differentiation in vitro, a neural stem cell differentiation assay was performed as set out below.
Neural stem cells, e.g., HCNA 94/GFPH, were cultured with a C3aR agonist (C3a) at a concentration of either 10 nM or 100 nM for three to ten days in the presence and absence of a known C3aR antagonist, SB290157 (Ames at al., J. Immunol. 166: 6341-6348, 2001), at a concentration of 5-10 μM, administered to the culture either prior to or at the same time as the C3aR agonist. The number of cells that differentiated into neurons was measured by immunostaining with antibodies against MAP2 (Sigma) and visualized using 4′,6-Diamidino-2-phenylindole (DAPI) staining. A compound is regarded as a stimulator of neural stem cell differentiation into neurons if it stimulates differentiation into neurons at a rate at least 25% greater than control cells (cultured in the presence of medium alone). The effect of the C3aR agonist on neural stem cell differentiation was not blocked by SB290157 (see Table 5 below). Thus, SB290157 was not effective in inhibited neuronal cell differentiation at the concentrations tested.

Where two headings read alike, the source gives them in different places. Bridges are numbered along the chain shown (N, C = ends). Where no end group is shown, it is not given here.

`COc1ccccc1Oc1c(NS(=O)(=O)c2ccc(C(C)(C)C)cc2)nc(-c2ncccn2)nc1OCCO` [Bosenthan]: the “effect on astrocyte hypertrophy” value in the assay on ETBR (ETBR antagonist in CNS trauma) was “reduced astrocyte hypertrophy”.
In the case of `NC(N)=NCCC[C@H](NC(=O)COCC(c1ccccc1)c1ccccc1)C(=O)O` [SB290157], the “number of Dcx^posBrdU^pos cells, lower compared to control mice” value was determined as 12.5% at C3aR (SVZ, P<0.05); 27% on C3aR (dentate gyrus subgranular zone, P<0.0005); 34% at C3aR (olfactory bulb, P<0.0005). In addition, the “fraction of Dcx^posBrdU^pos cells among the BrdU^pos cells” value on C3aR (SVZ, control 31.4±1.2%, P<0.005) is 26.4±0.8%; on C3aR (dentate gyrus subgranular zone, control 17.3±0.8%, P<0.0005), 13.1±0.6%; on C3aR (olfactory bulb, control 26.7±1.7%, P<0.005), 19.0±1.1%. For the same molecule, the “number of BrdU^pos cells” value on C3aR (any of the regions (SVZ, dentate gyrus subgranular zone, olfactory bulb)) is “not affected”. The “fraction of NeuN^posBrdU^pos cells among the BrdU^pos cells” value on C3aR (dentate gyrus subgranular zone, control 2.3±0.2%, P<0.05) came out at 1.7±0.1%; at C3aR (olfactory bulb, control 1.7±0.1%, P<0.005) it was 1.2±0.1%. Further, the “reduction in the number of NeuN^posBrdU^pos cells” value on C3aR (olfactory bulb and dentate gyrus subgranular zone, P<0.005) is 22-25%. Moreover, in assay [1] (SB290157 5-10 μM, given prior to or with C3a 10 or 100 nM), the “inhibition of the C3aR agonist effect on neural stem cell differentiation” value is “not effective”. In addition, the “% of MAP2+ Cells Among All DAPI+ Cells (Mean ± SEM)” value in assay [1] (SD290157 5 μM alone, culture medium alone 2.54 ± 0.12) worked out at 2.70 ± 0.19%.
For “endothelin 1: endothelin peptide, an ETBR agonist (CSCSSLMDKECVYFCHLDIIW; disulfide 1-15, 3-11; ends not checked; UniProt P05305 53-73, looked up)”, the “effect on astrocyte hypertrophy” value in the assay with ETBR (ETBR agonist administration) is on record as “leads to astrocyte hypertrophy”.
